Experimental findings from patent US7498300B2, “CRFR1 selective ligands” (The Salk Institute for Biological Studies, priority 2001, dated 2009) are described below.

Assay [1] is described as follows: In vivo lowering of blood pressure on peripheral administration. Particulars: administered peripherally.
Method: (§1) In vivo testing is carried out using the general procedure set forth in C.
The target of a further assay is T1, human CRFR2 (Homo sapiens, UniProt Q13324).
T1 construct: expressed in transfected cells
T1 sequence (Q13324 1-411): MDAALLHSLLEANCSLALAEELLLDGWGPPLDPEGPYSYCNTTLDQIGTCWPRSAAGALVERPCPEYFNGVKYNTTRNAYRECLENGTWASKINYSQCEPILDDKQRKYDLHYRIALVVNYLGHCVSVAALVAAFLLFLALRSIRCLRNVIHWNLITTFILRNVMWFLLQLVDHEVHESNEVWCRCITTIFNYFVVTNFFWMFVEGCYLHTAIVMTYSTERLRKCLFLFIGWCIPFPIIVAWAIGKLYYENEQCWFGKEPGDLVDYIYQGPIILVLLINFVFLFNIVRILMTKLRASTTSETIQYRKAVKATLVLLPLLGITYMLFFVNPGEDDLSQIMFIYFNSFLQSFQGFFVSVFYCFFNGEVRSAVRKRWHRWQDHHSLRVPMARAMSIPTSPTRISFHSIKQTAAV
Kind of assay: Competitive binding assay, CHO cells stably expressing human CRFR2, displacement of [125I-Tyr0]Ucn. Background: Loss of bound radioactivity is the signal in a displacement assay; it reports binding, not function.

Assay [2] deals with cultured rat pituitary cells. Kind of assay: In vitro stimulation of ACTH and β-endorphin secretion by cultured rat pituitary cells. The class given is cell-based.
Method: as §1
The target of another assay is T2, human CRFR1 (Homo sapiens, UniProt P34998).
T2 construct: expressed in transfected cells
T2 sequence (P34998 24-415): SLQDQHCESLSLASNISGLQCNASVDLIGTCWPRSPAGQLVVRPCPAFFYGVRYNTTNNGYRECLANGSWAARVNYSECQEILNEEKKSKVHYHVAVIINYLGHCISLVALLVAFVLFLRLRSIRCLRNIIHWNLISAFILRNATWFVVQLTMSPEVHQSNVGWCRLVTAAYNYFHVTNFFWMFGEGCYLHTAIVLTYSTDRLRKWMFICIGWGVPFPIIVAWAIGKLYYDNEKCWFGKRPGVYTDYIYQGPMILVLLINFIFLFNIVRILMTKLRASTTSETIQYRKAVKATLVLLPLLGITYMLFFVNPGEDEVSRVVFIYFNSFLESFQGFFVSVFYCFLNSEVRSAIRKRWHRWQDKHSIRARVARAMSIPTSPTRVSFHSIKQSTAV
Kind of assay: Competitive binding assay, CHO cells stably expressing human CRFR1, displacement of 125I-(Nle21,Tyr32) ovine CRF.

Method for human CRFR1: Binding affinity is a term used to refer to the strength of interaction between ligand and receptor. […] Ki (inhibitory binding affinity constant) is determined using a “standard” or “tracer” radioactive ligand and thus measures the displacement of the tracer from the receptor or binding protein; it is most properly expressed with reference to such tracer. However, so long as these assays are carefully performed under specific conditions with relatively low concentrations of receptor or the like, the calculated Ki will be substantially the same as its dissociation constant KD. […] It is particularly efficient to test for Ki because only a single tracer need be labelled, e.g. radioiodinated.
Binding assays with cells expressing human CRFR1 are carried out as described in the Chen et al. P.N.A.S., supra. The affinities of test peptides for CRFR1 and CRFR2 stably expressed in CHO cells were determined by competitive displacement of ^125I-(Nle^21, Tyr^32) ovine CRF (for CRFR1) or of [^125I-Tyr^o-]Ucn (for CRFR2) as described.
Method for human CRFR2: The affinities of test peptides for CRFR1 and CRFR2 stably expressed in CHO cells were determined by competitive displacement of ^125I-(Nle^21, Tyr^32) ovine CRF (for CRFR1) or of [^125I-Tyr^o-]Ucn (for CRFR2) as described.

Take “(cyclo 31-34)[Ac-Pro^4, CML^19, Nle^21,38, Glu^31, Lys^34]-r/hCRF(4-41) [Example 5 B]”: the “lowering of blood pressure” value in assay [1] is “very significant lowering of blood pressure”. Moreover, the “binding to CRFR2 (in words)” value on human CRFR2 was “only very weakly”. Moreover, the “stimulation of the secretion of ACTH and β-END-LI” value (“stimulation” below) in assay [2] was “stimulates”. For the same substance, on human CRFR1, the “binding to CRFR1 (in words)” value is “binds strongly”.

As to “(cyclo 31-34)[Ac-Pro^4, D-Phe^12, CML^14,27, Nle^21,38, Glu^31, Lys^34]-r/hCRF(4-41) [Example 6 A]”, the “lowering of blood pressure” value in assay [1] was “very significant lowering of blood pressure”. For the same substance, the “binding to CRFR2 (in words)” value at human CRFR2 is “only very weakly”. In addition, the “stimulation” value in assay [2] is reported as “stimulates”. The “binding to CRFR1 (in words)” value on human CRFR1 is given as “binds strongly”.

In the case of “(cyclo 31-34)[Ac-Pro^4, D-Phe^12, CML^14, Nle^21,38, Glu^31, Lys^34]-r/hCRF(4-41) [Example 5 A]”, in assay [1], the “lowering of blood pressure” value is listed as “very significant lowering of blood pressure”. The “binding to CRFR2 (in words)” value at human CRFR2 is “only very weakly”. Also, the “stimulation” value in assay [2] is “stimulates”. Moreover, at human CRFR1, the “binding to CRFR1 (in words)” value is recorded as “binds strongly”.

With “(cyclo 31-34)[Ac-Pro^4, D-Phe^12, CML^15, Nle^21,38, Glu^31, Lys^34]-r/hCRF(4-41) [Example 5]”, the “lowering of blood pressure” value in assay [1] is recorded as “very significant lowering of blood pressure”. Besides, the “binding to CRFR2 (in words)” value on human CRFR2 is “only very weakly”. Also, in assay [2], the “stimulation” value is given as “stimulates”. Moreover, the “binding to CRFR1 (in words)” value on human CRFR1 was “binds strongly”.

“(cyclo 31-34)[Ac-Pro^4, D-Phe^12, CML^17, Nle^21,38, Glu^31, Lys^34]-r/hCRF(4-41) [Example 5 E]”: the “lowering of blood pressure” value in assay [1] is “very significant lowering of blood pressure”. Also, the “binding to CRFR2 (in words)” value at human CRFR2 was “only very weakly”. Also, the “stimulation” value in assay [2] is listed as “stimulates”. Moreover, at human CRFR1, the “binding to CRFR1 (in words)” value is “binds strongly”.

In the case of “(cyclo 31-34)[Ac-Pro^4, D-Phe^12, CML^18,27, Nle^21,38, Glu^31, Lys^34]-r/hCRF(4-41) [Example 6 B]”, the “lowering of blood pressure” value in assay [1] is on record as “very significant lowering of blood pressure”. The “binding to CRFR2 (in words)” value at human CRFR2 was “only very weakly”. The “stimulation” value in assay [2] is recorded as “stimulates”. Moreover, the “binding to CRFR1 (in words)” value at human CRFR1 is “binds strongly”.

For the substance “(cyclo 31-34)[Ac-Pro^4, D-Phe^12, Nle^14,18,24, Glu^31, Lys^34]-flounder urotensin(4-41) [Example 3 G]”, the “lowering of blood pressure” value in assay [1] was “very significant lowering of blood pressure”. In addition, the “binding to CRFR2 (in words)” value at human CRFR2 is listed as “only very weakly”. The “stimulation” value in assay [2] is listed as “stimulates”. In addition, the “binding to CRFR1 (in words)” value at human CRFR1 is reported as “binds strongly”.

As for “(cyclo 31-34)[Ac-Pro^4, D-Phe^12, Nle^14,18,24, Glu^31, Lys^34]-maggy urotensin(4-41) [Example 3 E]”, the “lowering of blood pressure” value in assay [1] is recorded as “very significant lowering of blood pressure”. For the same substance, the “binding to CRFR2 (in words)” value on human CRFR2 is reported as “only very weakly”. The “stimulation” value in assay [2] is given as “stimulates”. Besides, the “binding to CRFR1 (in words)” value at human CRFR1 is given as “binds strongly”.

For the substance “(cyclo 31-34)[Ac-Pro^4, D-Phe^12, Nle^18,21, Glu^31, Lys^34]-AHC(4-41) [Example 3 A]”, in assay [1], the “lowering of blood pressure” value is reported as “very significant lowering of blood pressure”. For the same substance, the “binding to CRFR2 (in words)” value at human CRFR2 is given as “only very weakly”. Moreover, the “stimulation” value in assay [2] was “strongly stimulates”. At human CRFR1, the “binding to CRFR1 (in words)” value is “bind strongly”.

As to “(cyclo 31-34)[Ac-Pro^4, D-Phe^12, Nle^18,21, Glu^31, Lys^34]-carp urotensin(4-41) [Example 3 F]”, the “lowering of blood pressure” value in assay [1] is “very significant lowering of blood pressure”. Besides, on human CRFR2, the “binding to CRFR2 (in words)” value is on record as “only very weakly”. In addition, in assay [2], the “stimulation” value is reported as “stimulates”. Moreover, the “binding to CRFR1 (in words)” value on human CRFR1 was “binds strongly”.

Take “(cyclo 31-34)[Ac-Pro^4, D-Phe^12, Nle^18,21, Glu^31, Lys^34]-sucker urotensin(4-41) [Example 3 B]”: the “lowering of blood pressure” value in assay [1] is on record as “very significant lowering of blood pressure”. Besides, the “binding to CRFR2 (in words)” value at human CRFR2 is reported as “only very weakly”. Moreover, the “stimulation” value in assay [2] was “stimulates”. For the same substance, at human CRFR1, the “binding to CRFR1 (in words)” value is recorded as “binds strongly”.

Take “(cyclo 31-34)[Ac-Pro^4, D-Phe^12, Nle^21,37,38, Glu^31, Lys^34]-fish CRF(4-41) [Example 3 D]”: in assay [1], the “lowering of blood pressure” value was “very significant lowering of blood pressure”. Further, on human CRFR2, the “binding to CRFR2 (in words)” value was “only very weakly”. Moreover, the “stimulation” value in assay [2] is recorded as “stimulates”. Further, the “binding to CRFR1 (in words)” value at human CRFR1 is given as “binds strongly”.

Consider “(cyclo 31-34)[Ac-Pro^4, D-Phe^12, Nle^21,38, CML^27,36, Glu^31, D-His^32, Lys^34]-r/hCRF(4-41) [Example 6 C D-His^32 analog]”, for which the “lowering of blood pressure” value in assay [1] is “very significant lowering of blood pressure”. The “binding to CRFR2 (in words)” value on human CRFR2 is on record as “only very weakly”. Also, in assay [2], the “stimulation” value is recorded as “stimulates”. The “binding to CRFR1 (in words)” value on human CRFR1 is “binds strongly”.

As for “(cyclo 31-34)[Ac-Pro^4, D-Phe^12, Nle^21,38, CML^27,36, Glu^31, Lys^34]-r/hCRF(4-41) [Example 6 C]”, in assay [1], the “lowering of blood pressure” value is reported as “very significant lowering of blood pressure”. On human CRFR2, the “binding to CRFR2 (in words)” value is reported as “only very weakly”. For the same substance, the “stimulation” value in assay [2] is on record as “stimulates”. Also, the “binding to CRFR1 (in words)” value at human CRFR1 was “binds strongly”.

As for “(cyclo 31-34)[Ac-Pro^4, D-Phe^12, Nle^21,38, CML^27,37, Glu^31, Lys^34]-r/hCRF(4-41) [Example 6 D]”, the “lowering of blood pressure” value in assay [1] is recorded as “very significant lowering of blood pressure”. Moreover, the “binding to CRFR2 (in words)” value on human CRFR2 was “only very weakly”. Further, the “stimulation” value in assay [2] is “stimulates”. In addition, the “binding to CRFR1 (in words)” value at human CRFR1 was “binds strongly”.

On to “(cyclo 31-34)[Ac-Pro^4, D-Phe^12, Nle^21,38, CML^27,40, Glu^31, Aib^33, Lys^34]-r/hCRF(4-41) [Example 6 G]”, for which, in assay [1], the “lowering of blood pressure” value is on record as “very significant lowering of blood pressure”. Further, on human CRFR2, the “binding to CRFR2 (in words)” value is “bind only weakly”. In addition, the “stimulation” value in assay [2] was “stimulates”. At human CRFR1, the “binding to CRFR1 (in words)” value was “high affinity”.

On to “(cyclo 31-34)[Ac-Pro^4, D-Phe^12, Nle^21,38, CML^27,40, Glu^31, D-Ala^33, Lys^34]-r/hCRF(4-41) [Example 6 I]”, for which the “lowering of blood pressure” value in assay [1] is given as “very significant lowering of blood pressure”. Moreover, the “binding to CRFR2 (in words)” value at human CRFR2 was “bind only weakly”. The “stimulation” value in assay [2] is “stimulates”. In addition, the “binding to CRFR1 (in words)” value at human CRFR1 is “high affinity”.

For the substance “(cyclo 31-34)[Ac-Pro^4, D-Phe^12, Nle^21,38, CML^27,40, Glu^31, D-Ser^33, Lys^34]-r/hCRF(4-41) [Example 6 H]”, the “lowering of blood pressure” value in assay [1] is recorded as “very significant lowering of blood pressure”. Also, the “binding to CRFR2 (in words)” value at human CRFR2 is listed as “bind only weakly”. Also, in assay [2], the “stimulation” value is “stimulates”.

For “(cyclo 31-34)[Ac-Pro^4, D-Phe^12, Nle^21,38, CML^27,40, Glu^31, Lys^34]-r/hCRF(4-41) [Example 6 E]”, in assay [1], the “lowering of blood pressure” value is listed as “very significant lowering of blood pressure”. The “binding to CRFR2 (in words)” value at human CRFR2 is reported as “bind only weakly”. In assay [2], the “stimulation” value was “stimulates”. In addition, the “binding to CRFR1 (in words)” value at human CRFR1 is given as “high affinity”.

On to “(cyclo 31-34)[Ac-Pro^4, D-Phe^12, Nle^21,38, CML^27,41, Glu^31, Lys^34]-r/hCRF(4-41) [Example 6 F]”, for which, in assay [1], the “lowering of blood pressure” value was “very significant lowering of blood pressure”. For the same substance, the “binding to CRFR2 (in words)” value at human CRFR2 was “only very weakly”. Also, the “stimulation” value in assay [2] is on record as “stimulates”. At human CRFR1, the “binding to CRFR1 (in words)” value is listed as “binds strongly”.

Take “(cyclo 31-34)[Ac-Pro^4, D-Phe^12, Nle^21,38, CML^27, Glu^31, D-His^32, Lys^34]-r/hCRF(4-41) [Example 5 F]”: the “lowering of blood pressure” value in assay [1] is “very significant lowering of blood pressure”. Also, the “binding to CRFR2 (in words)” value at human CRFR2 is on record as “only very weakly”. In addition, the “stimulation” value in assay [2] was “stimulates”. At human CRFR1, the “binding to CRFR1 (in words)” value is listed as “binds strongly”.
